# Experiments:
# Assay type in all cases: cell-based, human
# [1] = tested on: WT1 protein expression in KG-1a cells; assay: WT1 protein expression in KG-1a cells by Western blotting; details: IC50 concentration, up to 12 h
# Description: (§1) KG-1a cells (1.5 × 10^5 cells/mL) were treated with compounds or extracts at different incubation times. Then, the cells were harvested and the whole proteins were extracted using a RIPA buffer (25 mM Tris-base, pH 7.6, 0.1% SDS, 1% Triton X-100, 150 mM NaCl, and 1 mM EDTA). The protein concentration was measured using the Folin-Lowry or Bradford assay. The whole protein lysates (30 µg/lane) were then separated through 7.5% SDS-PAGE under reducing conditions and then transferred to PVDF membranes. The membranes were blocked in 5% skim milk in PBS, pH 7.4 at RT for 2 h, then, target proteins were probed with specific primary antibodies (anti-WT1, anti-CD34, anti-GAPDH, anti-cleaved caspase-3, anti-cleaved PARP, anti-phospho-Akt, anti-phospho-c-Jun, anti-phospho-SAPK/JNK, and anti-YAP/TAZ) indicated in Table S10 which diluted at a ratio of 1:1,000 in PBS, pH 7.4 at RT for 2 h. After incubation, the membranes were rinsed 6 times with 0.1% Tween-20 (Sigma-Aldrich, MA, USA) in PBS, pH 7.4 (PBS-T), each time for 5 min. The reaction was followed by HRP-conjugated secondary antibody at 1:20,000 dilution in PBS, pH 7.4 at RT for 2 h, then, the membranes were rinsed 6 times for 5 min each with PBS-T. The proteins were shown using Immobilon Forte Western HRP substrate (Millipore, MA, USA). Finally, the protein band signal was quantified by using a scan densitometer (Bio-Rad Laboratories, CA, USA).
# KG-1a cells [2] = assay: MTT cytotoxicity assay in KG-1a cells; details: Homo sapiens, KG-1a
# Description: MTT (3-(4,5-dimethylthiazol-2-yl)-2,5-diphenyltetrazolium bromide) assay was used to investigate the cytotoxicity of the test samples. KG-1a (1.5 × 10^4 cells/well), K562 (1.0 × 10^4 cells/well), PBMCs (1.0 × 10^5 cells/well), A549 (5.0 × 10^3 cells/well), MCF-7 (5.0 × 10^3 cells/well), and HeLa (5.0 × 10^3 cells/well) were seeded into a 96-well plate and incubated overnight at 37 °C with 5% CO2. […] After that, 5 mg/mL of MTT dye solution (Sigma-Aldrich, MA, USA) was added and incubated for 4 h. The produced formazan crystals were dissolved in 200 µL of DMSO (Sigma-Aldrich, MA, USA); then, the optical density (OD) was measured using an ELISA plate reader (Metertech, Taipei, Taiwan) at 578 nm with a reference wavelength of 630 nm. The percentage of surviving cells was calculated from the absorbance values of the test and control wells using the following Equation. 1 [drawing 1]
# where ODsample is a mean absorbance in test well and ODvehicle control is a mean absorbance in VC well. The average percentage of surviving cells at each concentration obtained from triplicate experiments was plotted as a dose-response curve. Inhibitory concentration values at 50% growth (IC50 value) were defined as the lowest concentration of the test sample that inhibited cell growth by 50% compared to the untreated control.
# To calculate IC50 values, a dose-response curve was fitted using non-linear regression analysis, as described in the GraphPad Prism guidelines (https://www.graphpad.com/support/faq/how-to-determine-an-icsub50sub/). The IC50 value was obtained by determining the point at which the curve intersected 50% growth inhibition. Non-linear regression graphs of the dose-response curve for each compound are provided in the supplementary data file (Figs. S1–S8).
# where IC50 N is IC50 for normal cells and IC50 C is IC50 for cancer cells which were treated with the same compounds in both cells.
# KG-1a cells [3] = assay: Cell death analysis by PI staining and flow cytometry in KG-1a cells; details: nocodazole 5–120 ng/mL, shogaol 6–9 µg/mL, curcumin various concentrations; time course
# Description: Additionally, PI staining was used to investigate the cytotoxicity of the active compounds. KG-1a cells after exposure to the active compounds with various concentration were harvested at different incubation times and washed with ice-cold PBS, pH 7.4 for 2 times. Then, the cells were resuspended with PI in PBS, pH 7.4 at a ratio of 1:10,000. The percentage of dead cells was detected by flow cytometry (CytoFLEX S, Beckman Coulter, CA, USA) and analyzed by CytExpert program (Beckman Coulter, CA, USA).
# [4] = tested on: cleaved caspase-3 and PARP in KG-1a cells; assay: Cleaved caspase-3 and cleaved PARP in KG-1a cells by Western blotting; details: IC50 concentrations (curcumin 10 µg/mL, shogaol 3 µg/mL, nocodazole 10 ng/mL), 0–12 h
# Description: as §1
# KG-1a cells [5] = assay: Cell cycle and apoptosis (sub-G1) assay by flow cytometry in KG-1a cells; details: 48 h
# Description: After treating KG-1a cells with active compounds at various concentrations for 48 h, the cells were pulsed with 10 µM BrdU (Sigma-Aldrich, MA, USA) for 20 min at 37 °C in an incubator with 5% CO2. Subsequently, the cells were harvested, washed with ice-cold PBS, pH 7.4 three times, and then fixed with 70% ethanol in PBS, pH 7.4 at −30 °C. Following fixation, the cells were washed and resuspended in 2 N HCl/0.5% Triton X-100 for 30 min at room temperature (RT). Then, 0.1 M sodium tetraborate decahydrate was added for 2 min at RT to neutralize the acid. Subsequently, the cells were stained with FITC-anti-BrdU antibody for 30 min at RT. After washing, the cells were resuspended in propidium iodide (PI) (Dojindo, Kumamoto, Japan) in PBS, pH 7.4 at a ratio of 1:1,000. The cell cycle phases were detected using a flow cytometer (CytoFLEX S, Beckman Coulter, CA, USA) and analyzed with the CytExpert program (Beckman Coulter, CA, USA).
# The flow cytometry data were analyzed to assess both apoptosis and cell cycle distribution. Apoptosis was evaluated by determining the percentage of cells in the sub-G1 phase using the Nicoletti assay. For cell cycle analysis, populations in the G1, S, and G2/M phases were calculated after excluding the sub-G1 population to avoid interference from apoptotic cells, allowing for a clearer assessment of cell cycle arrest in different phases. Data were presented in separate graphs for the sub-G1 population and cell cycle phase distributions.
smiles,measurement,setting,value
"COC(=O)Nc1nc2ccc(C(=O)c3cccs3)cc2[nH]1 [Nocodazole, nocodazole, reference compound]",effect on WT1 expression,[1],failed to reduce WT1 expression even after 12 h of incubation
same,IC50,"KG-1a cells [2]; as used for Western blotting, read-out: IC50 concentration in KG-1a cells",10 ng/mL
same,IC20,"KG-1a cells [2]; as used in the cell cycle assay, read-out: IC20 concentration in KG-1a cells",6 ng/mL
same,induction of cell death (PI staining),KG-1a cells [3],significant induction of cell death after 24 h of incubation
same,time to activation of cleaved caspase-3 and PARP,[4],failed to induce the activation of cleaved caspase-3 and PARP even after 12 h of incubation
same,effect on sub-G1 population compared to VC,"KG-1a cells [5]; IC20 concentration (nocodazole 6 ng/mL, curcumin 3 µg/mL, shogaol 0.12 µg/mL)",significantly increased the sub-G1 population
same,increase of proportion of cells in G2/M phase,"KG-1a cells [5]; IC20 concentration, sub-G1 excluded",23.48 ± 1.35%
